In brackets after ≈: the same amount, converted by molar mass.
What was measured:
ASPC1 = assay: Cytotoxicity against human AsPC1 cells assessed as inhibition of cell proliferation after 48 hrs by XTT assay; type: functional, cell-based; settings: ASPC1, 48 h
[1] = Cytotoxicity against mouse B16F10 cells assessed as inhibition of cell proliferation after 48 hrs by XTT assay; type: functional, cell-based; settings: B16-F10, 48 h
NCI-H460 = assay: Cytotoxicity against human NCI-H460 cells assessed as inhibition of cell proliferation after 48 hrs by XTT assay; type: functional, cell-based; settings: NCI-H460, 48 h
MDA-MB-231 = assay: Cytotoxicity against human MDA-MB-231 cells assessed as inhibition of cell proliferation after 48 hrs by XTT assay; type: functional, cell-based; settings: MDA-MB-231, 48 h
SW-620 = assay: Cytotoxicity against human SW620 cells assessed as inhibition of cell proliferation after 48 hrs by XTT assay; type: functional, cell-based; settings: SW-620, 48 h
[2] = Kinetic solubility of the compound in water containing 5% DMSO at pH 6.8; type: physicochemical; settings: read-out: Kinetic_solubility

| solubility kinetic [2] [µM] | Compound | IC50 (ASPC1) [µM] | IC50 [1] [µM] | IC50 (NCI-H460) [µM] | IC50 (MDA-MB-231) [µM] | IC50 (SW-620) [µM] | IC50 (ASPC1; read-out: IC50) [µM] |
| --- | --- | --- | --- | --- | --- | --- | --- |
|  | COc1cccc2c1C(=O)c1c(O)c3c(c(O)c1C2=O)C[C@@](O)(C(=O)CO)C[C@@H]3O[C@H]1C[C@H](N)[C@H](O)[C@H](C)O1 [DOXORUBICIN] | 1.87 | 0.12 | 0.08 | 0.98 | 0.12 |  |
|  | COc1c(OCC(=O)O)cc2oc3cc(OCC(=O)O)c(CC=C(C)C)c(O)c3c(=O)c2c1CC=C(C)C |  | 95.8 | > 100 | > 100 | > 100 | > 100 |
| 148 (≈ 67 µg/mL) | COc1c(OC(C)=O)cc2oc3cc(O)c(CC=C(C)C)c(O)c3c(=O)c2c1CC=C(C)C |  | 13.1 | 12.6 | 12.9 | 10.9 | 13.9 |
|  | C=CCOc1cc2oc3cc(OC)c(CC=C(C)C)c(O)c3c(=O)c2c(CC=C(C)C)c1OC |  | > 100 | > 100 | > 100 | > 100 | > 100 |
|  | C#CCOc1c(O)cc2oc3cc(O)c(CC=C(C)C)c(O)c3c(=O)c2c1CC=C(C)C |  |  | > 100 | > 100 | > 100 | > 100 |
|  | COc1c(O)cc2oc3cc4c(c(O)c3c(=O)c2c1CC=C(C)C)C=CC(C)(C)O4 [MANGOSTANIN] |  | 26.2 | 19.7 | 21.1 | 26.1 | 25.5 |
|  | COc1ccc2oc3cc(O)c(CCC(C)C)c(O)c3c(=O)c2c1CCC(C)C |  | > 100 | > 100 | > 100 | > 100 | > 100 |
| 138 (≈ 54.9 µg/mL) | COc1c(N)cc2oc3ccc(CCC(C)C)c(O)c3c(=O)c2c1CCC(C)C |  | 14.4 | 17.6 | 30.9 | 15.9 | 31.3 |
|  | COc1c(OS(=O)(=O)C(F)(F)F)cc2oc3cc(OS(=O)(=O)C(F)(F)F)c(CC=C(C)C)c(O)c3c(=O)c2c1CC=C(C)C |  | 15.3 | 22.4 | 16.9 | 9.01 | 13.8 |
| 122 (≈ 60.3 µg/mL) | COc1c(OC(C)=O)cc2oc3cc(OC(C)=O)c(CC=C(C)C)c(O)c3c(=O)c2c1CC=C(C)C |  | 15.1 | 12.5 | 17.4 | 22.7 | 14.2 |
|  | COc1ccc2oc3ccc(CCC(C)C)c(O)c3c(=O)c2c1CCC(C)C |  | > 100 | > 100 | > 100 | > 100 | > 100 |
| 20 (≈ 8.21 µg/mL) | COc1c(O)cc2oc3cc(O)c(CC=C(C)C)c(O)c3c(=O)c2c1CC=C(C)C [MANGOSTIN] |  | 3.23 | 3.23 | 3.04 | 2.97 | 4.02 |
| 104 (≈ 44.1 µg/mL) | COc1c(O)cc2oc3cc(O)c(CC=C(C)C)c(OC)c3c(=O)c2c1CC=C(C)C |  | 16.6 | 10.8 | 20.8 | 18.2 | 13.9 |
|  | C=CCOc1cc2oc3cc(OCC=C)c(OC)c(CC=C(C)C)c3c(=O)c2c(O)c1CC=C(C)C |  | > 100 | > 100 | > 100 | > 100 | > 100 |
| 339 (≈ 156 µg/mL) | COc1c(O)cc2oc3c([N+](=O)[O-])c(O)c(CCC(C)C)c(O)c3c(=O)c2c1CCC(C)C |  |  | 16.8 | 29 | 22.6 | 31.8 |
| 78 (≈ 32.3 µg/mL) | COc1c(O)cc2oc3cc(O)c(CCC(C)C)c(O)c3c(=O)c2c1CCC(C)C |  | 6.54 | 4.17 | 4.91 | 6.42 | 4.64 |
|  | CC(C)=CCc1c(O)cc2oc3cc(O)c(OCc4cn(CC(=O)OC(C)(C)C)nn4)c(CC=C(C)C)c3c(=O)c2c1O |  |  | > 100 | > 100 | > 100 | > 100 |
|  | COc1c(O)cc2oc3cc4c(c(O)c3c(=O)c2c1CC=C(C)C)CCC(C)(C)O4 |  | > 100 | > 100 | > 100 | > 100 | > 100 |
| 149 (≈ 67.1 µg/mL) | C=CCOc1cc2oc3cc(O)c(CC=C(C)C)c(O)c3c(=O)c2c(CC=C(C)C)c1OC |  | 16.5 | 12.2 | 17.9 | 12.1 | 21.3 |
| 381 (≈ 171 µg/mL) | COc1c(O)cc2oc3c(Cl)c(O)c(CCC(C)C)c(O)c3c(=O)c2c1CCC(C)C |  | 12.4 | 9.96 | 10.1 | 9.59 | 19.3 |
|  | COc1c(O)cc2oc3c(N)c(O)c(CCC(C)C)c(O)c3c(=O)c2c1CCC(C)C |  | 12.3 | 15.1 | 17.6 | 6.24 | 13 |
|  | C=CCOc1cc2oc3cc(OCC=C)c(OC)c(CC=C(C)C)c3c(=O)c2c(OC)c1CC=C(C)C |  | 41 | 14.6 | 28 | 44.6 | 25.8 |
|  | COc1c(OCC(=O)O)cc2oc3cc(O)c(CC=C(C)C)c(O)c3c(=O)c2c1CC=C(C)C |  | 28.6 | 54.6 | > 100 | 46.6 | 52.8 |

| Compound | solubility kinetic [2] [µM] | IC50 (ASPC1) [µM] | IC50 [1] [µM] | IC50 (NCI-H460) [µM] | IC50 (MDA-MB-231) [µM] | IC50 (SW-620) [µM] | IC50 (ASPC1; read-out: IC50) [µM] |
| --- | --- | --- | --- | --- | --- | --- | --- |
| CC(C)=CCc1c(O)cc2oc3cc(O)c(O)c(CC=C(C)C)c3c(=O)c2c1O | 94 (≈ 37.3 µg/mL) |  |  | 4.48 | 5.87 | 5.69 | 5.92 |
